Measured values published in publication PMC5068967, “Nucleophile sensitivity of Drosophila TRPA1 underlies light-induced feeding deterrence” (eLife, 2016).

Experiments:
[1] = target: T1, Drosophila TRPA1(B) (Drosophila melanogaster, UniProt Q7Z020); assay: Two-electrode voltage clamp of Xenopus oocytes expressing Drosophila TRPA1(B); assay type: cell-based
T1 construct: expressed in transfected cells; host or cells: Xenopus laevis oocytes injected with TrpA1 cRNA
T1 sequence (Q7Z020 1-1197): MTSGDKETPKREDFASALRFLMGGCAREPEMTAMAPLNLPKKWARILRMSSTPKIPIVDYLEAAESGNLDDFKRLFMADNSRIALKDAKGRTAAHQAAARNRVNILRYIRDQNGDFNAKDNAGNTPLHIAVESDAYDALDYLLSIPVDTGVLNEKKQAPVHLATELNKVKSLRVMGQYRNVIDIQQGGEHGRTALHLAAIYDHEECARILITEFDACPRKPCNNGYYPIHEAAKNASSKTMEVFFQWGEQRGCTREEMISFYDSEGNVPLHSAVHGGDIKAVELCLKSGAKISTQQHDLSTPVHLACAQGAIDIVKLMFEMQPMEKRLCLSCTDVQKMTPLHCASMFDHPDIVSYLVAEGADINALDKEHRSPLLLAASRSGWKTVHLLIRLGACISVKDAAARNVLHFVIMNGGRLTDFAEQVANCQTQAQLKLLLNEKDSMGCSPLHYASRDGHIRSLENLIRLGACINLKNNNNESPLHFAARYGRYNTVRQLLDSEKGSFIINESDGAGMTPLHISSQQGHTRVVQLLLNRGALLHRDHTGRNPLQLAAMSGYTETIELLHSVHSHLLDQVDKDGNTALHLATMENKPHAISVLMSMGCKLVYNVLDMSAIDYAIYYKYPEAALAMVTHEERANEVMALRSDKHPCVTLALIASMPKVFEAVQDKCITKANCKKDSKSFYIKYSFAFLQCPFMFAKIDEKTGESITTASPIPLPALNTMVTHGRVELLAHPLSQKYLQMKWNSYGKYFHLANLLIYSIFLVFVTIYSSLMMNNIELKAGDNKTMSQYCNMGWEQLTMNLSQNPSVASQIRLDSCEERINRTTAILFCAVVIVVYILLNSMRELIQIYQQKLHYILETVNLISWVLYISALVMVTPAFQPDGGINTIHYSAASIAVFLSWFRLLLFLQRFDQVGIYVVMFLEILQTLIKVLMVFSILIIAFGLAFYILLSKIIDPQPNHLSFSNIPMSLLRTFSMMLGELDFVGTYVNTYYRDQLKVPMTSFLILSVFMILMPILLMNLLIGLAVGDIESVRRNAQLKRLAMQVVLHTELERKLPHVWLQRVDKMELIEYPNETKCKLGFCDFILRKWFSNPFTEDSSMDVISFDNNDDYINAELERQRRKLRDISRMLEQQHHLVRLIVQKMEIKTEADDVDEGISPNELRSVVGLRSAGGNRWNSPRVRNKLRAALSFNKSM
Protocol: (§1) TRPA1-dependent currents in Xenopus laevis oocytes induced by application of chemicals and light illumination were recorded by the two-electrode voltage clamping technique (TEVC), as described previously ([Kang et al., 2010]; [Kang et al., 2012]). Briefly, ovaries were surgically prepared and subjected to digestion with 1.5 mg/ml collagenase for 1.5 hr. Subsequently, the follicular layer of the oocytes was manually removed. One day after microinjection of 50 nl of TrpA1 cRNA, oocytes were electrophysiologically examined while perfused with the recording solution (96 mM NaCl, 1 mM KCl, 1 mM MgCl2, 5 mM HEPES, pH 7.6). For UV illumination, the optical fiber terminal was mounted above the cell at a minimal distance to achieve the highest possible intensity (Figure 1—figure supplement 1c). […] For UV experiments, the initial voltage was −60 mV, and it was then changed in periods of 300 ms from −60 to +60 mV per second. […] The current was amplified with a GeneClamp 500B amplifier (Molecular Devices, CA, USA) and registered by a digitizer (Digidata 1440 A, Molecular Devices, CA, USA). Data from dose-dependence experiments were normalized with respect to 0.1 mM NMM currents recorded from the same cells, and fitted to the Hill equation using Sigmaplot12.

[2] = target: agTRPA1(A) (Anopheles gambiae, UniProt B3G3I7); assay: Two-electrode voltage clamp of Xenopus oocytes expressing agTRPA1(A); assay type: cell-based; details: for isoform preference of activation: −60 mV, agTRPA1(A) versus agTRPA1(B)
agTRPA1(A), sequence (B3G3I7 entry or part of it): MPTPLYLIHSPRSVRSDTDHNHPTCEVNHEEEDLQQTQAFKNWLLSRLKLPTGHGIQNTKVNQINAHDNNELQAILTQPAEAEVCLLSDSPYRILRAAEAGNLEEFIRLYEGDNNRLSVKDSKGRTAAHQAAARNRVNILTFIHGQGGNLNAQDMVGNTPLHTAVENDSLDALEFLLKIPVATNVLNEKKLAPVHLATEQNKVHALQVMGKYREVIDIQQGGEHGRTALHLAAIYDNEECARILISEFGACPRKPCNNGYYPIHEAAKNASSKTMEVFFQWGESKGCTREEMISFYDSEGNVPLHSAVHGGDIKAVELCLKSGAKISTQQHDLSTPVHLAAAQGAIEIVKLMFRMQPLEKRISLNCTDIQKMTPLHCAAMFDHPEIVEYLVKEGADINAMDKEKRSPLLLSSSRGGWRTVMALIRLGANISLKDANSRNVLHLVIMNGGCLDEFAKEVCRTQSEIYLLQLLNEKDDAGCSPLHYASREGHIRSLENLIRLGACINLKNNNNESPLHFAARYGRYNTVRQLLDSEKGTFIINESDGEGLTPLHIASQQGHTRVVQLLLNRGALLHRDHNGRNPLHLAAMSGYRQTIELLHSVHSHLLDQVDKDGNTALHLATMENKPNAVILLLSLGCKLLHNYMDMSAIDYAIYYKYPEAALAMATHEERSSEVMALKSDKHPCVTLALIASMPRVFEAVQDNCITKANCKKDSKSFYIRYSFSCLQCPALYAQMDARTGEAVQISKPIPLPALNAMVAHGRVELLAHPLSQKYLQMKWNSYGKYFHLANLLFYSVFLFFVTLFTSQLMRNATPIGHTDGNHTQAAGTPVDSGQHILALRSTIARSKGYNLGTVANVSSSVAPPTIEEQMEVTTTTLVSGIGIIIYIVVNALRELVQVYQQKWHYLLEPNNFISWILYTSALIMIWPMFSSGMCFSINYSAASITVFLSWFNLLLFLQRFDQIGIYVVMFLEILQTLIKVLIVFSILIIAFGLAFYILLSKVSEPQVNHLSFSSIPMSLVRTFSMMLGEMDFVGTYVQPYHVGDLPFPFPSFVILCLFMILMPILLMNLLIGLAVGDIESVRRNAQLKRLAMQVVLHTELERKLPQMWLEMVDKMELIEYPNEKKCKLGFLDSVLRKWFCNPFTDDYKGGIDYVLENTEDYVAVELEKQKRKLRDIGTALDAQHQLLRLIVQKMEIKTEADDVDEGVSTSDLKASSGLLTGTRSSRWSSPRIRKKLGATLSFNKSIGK
Protocol: as §1

[3] = target: T2, human TRPA1 (humTRPA1) (Homo sapiens, UniProt O75762); assay: Two-electrode voltage clamp of Xenopus oocytes expressing human TRPA1; assay type: cell-based
T2 construct: expressed in transfected cells; host or cells: Xenopus laevis oocytes injected with TrpA1 cRNA
T2 sequence (O75762 whole entry): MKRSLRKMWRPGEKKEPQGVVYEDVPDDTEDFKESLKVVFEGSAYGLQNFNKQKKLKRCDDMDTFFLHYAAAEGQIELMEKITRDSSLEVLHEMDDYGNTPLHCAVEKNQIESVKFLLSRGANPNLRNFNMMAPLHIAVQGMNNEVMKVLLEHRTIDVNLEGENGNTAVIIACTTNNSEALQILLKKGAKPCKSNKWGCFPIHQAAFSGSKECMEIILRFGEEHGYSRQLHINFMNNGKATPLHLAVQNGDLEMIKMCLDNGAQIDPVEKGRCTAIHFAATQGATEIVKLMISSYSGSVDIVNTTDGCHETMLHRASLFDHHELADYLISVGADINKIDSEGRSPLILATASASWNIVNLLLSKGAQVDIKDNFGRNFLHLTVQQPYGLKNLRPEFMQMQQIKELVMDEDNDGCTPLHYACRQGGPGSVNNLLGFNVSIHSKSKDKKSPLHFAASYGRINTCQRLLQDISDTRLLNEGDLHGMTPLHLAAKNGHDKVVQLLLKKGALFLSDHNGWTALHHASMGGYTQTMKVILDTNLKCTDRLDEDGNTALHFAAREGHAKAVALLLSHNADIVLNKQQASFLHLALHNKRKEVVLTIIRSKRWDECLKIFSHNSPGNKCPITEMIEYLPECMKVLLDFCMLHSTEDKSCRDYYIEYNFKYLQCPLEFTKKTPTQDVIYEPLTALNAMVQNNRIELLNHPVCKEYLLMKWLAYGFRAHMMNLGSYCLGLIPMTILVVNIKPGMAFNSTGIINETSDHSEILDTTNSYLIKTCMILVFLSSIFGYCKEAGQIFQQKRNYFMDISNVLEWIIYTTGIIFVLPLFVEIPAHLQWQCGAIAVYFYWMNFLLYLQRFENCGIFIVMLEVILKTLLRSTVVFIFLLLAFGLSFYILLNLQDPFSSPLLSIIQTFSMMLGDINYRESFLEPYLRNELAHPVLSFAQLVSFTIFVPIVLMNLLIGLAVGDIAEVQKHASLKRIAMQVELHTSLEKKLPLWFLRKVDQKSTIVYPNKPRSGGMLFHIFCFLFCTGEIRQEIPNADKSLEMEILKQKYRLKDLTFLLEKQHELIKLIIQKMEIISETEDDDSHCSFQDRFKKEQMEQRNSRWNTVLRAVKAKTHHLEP
Protocol: as §1

[4] = test system: bitter-sensing neurons in i-bristles; assay: Extracellular single sensillum recording from labellum i-bristles; assay type: in vivo, Drosophila melanogaster; details: for effect of pre-application on UV-evoked action potentials: i-a bristles, applied via the recording electrode, concentrations below those eliciting fast activation
Protocol: In vivo taste cell recordings were performed as detailed previously ([Kang et al., 2012]). Briefly, bristles were identified based on the previously described sensillum map of the labellum ([Weiss et al., 2011]; [Tanimura et al., 2009]). […] Tricholine citrate (TCC) at 30 mM was used as an electrolyte in the glass recording electrodes. Chemicals were solubilized in the electrolyte solution, and then applied to taste neurons. Spiking frequencies to chemicals were calculated for entire recordings except for H2O2 recording in L bristles, for which spiking frequencies were calcuclated from the first 10 s. […] For the first 20 s of UV response recordings, the basal activity of neurons in the bristle was monitored, after which time UV illumination was administered to the sensilla for 20 s using optical fiber-coupled UV LEDs (FCS-0295–000, Mightex, CA, and UVTOP295, Qphotonics, MI, USA for UVB at 295 nm and M365FP1, Thorlabs, USA for UVA at 365 nm) controlled by an SLA-series two-channel LED driver (SLA-0100–2, Mightex) and a T-Cube LED driver (LEDD1B, Thorlab, USA), respectively. The maximal optical fiber output of 295 nm UV was 0.063 mWusing a ball-lens type LED and that of 365 nm UV was 0.3 mW. These net power outputs at the tip of the optical fiber were measured with a photodiode sensor (S120VC, Thorlabs, NJ, USA) connected to a digital console (PM100D, Thorlabs, NJ, USA). Illumination intensity was calculated by considering the size of illuminated area derived from the numerical aperture (NA) values of the optical fibers and the distance to the samples. Due to the complex shape of fly taste bristles on the labellum and various illumination angles between the light beam and tissue, we simplified the calculation by postulating a 45° angle and oval illumination area at a distance (Figure 1—figure supplement 1d). For oocytes, circular areas were calculated (Figure 1—figure supplement 1e). Blue and green light illumination was accomplished using a GFP or RFP excitation filter (470 or 540 nm with a bandpath of 50, respectively) equipped with a typical fluorescence microscope. The UV filter for experiments with white light consisted of glass deposited with nanolayers of titanium dioxide (custom-made, Seoul Precision Optics, Seoul, Korea). Flies prepared for sensillum recording in response to light were used once to record from a single bristle, in order to test only naïve cells. The reference electrode containing hemolymph-like solution 3.1 (HL3.1) ([Feng et al., 2009]) was inserted close to the labella taste neuron cell bodies from the back of the fly thorax, which held the proboscis in an extended configuration in order to minimize electrical noise stemming from movement of the live animal. Tasteprobe (Syntech, Netherlands) was used as a preamplifier to register the action potentials from the neurons, which were digitized with Powerlab (ADI instruments, Australia). The obtained spiking frequencies were analyzed by Labchart (ADI instruments, Australia). Non-responding bristles were re-tested with other agonists that activate the same neurons as indicated in the main text (Figure 1—figure supplement 2 and Figure 3—figure supplement 1).

[5] = test system: TRPA1(A)C105A; assay: Two-electrode voltage clamp of Xenopus oocytes expressing TRPA1(A)C105A; assay type: cell-based, Drosophila melanogaster
Protocol: as §1

[6] = test system: TRPA1(A)R113A/R116A; assay: Two-electrode voltage clamp of Xenopus oocytes expressing TRPA1(A)R113A/R116A; assay type: cell-based, Drosophila melanogaster
Protocol: as §1

[7] = test system: agTRPA1(B); assay: Two-electrode voltage clamp of Xenopus oocytes expressing agTRPA1(B); assay type: cell-based, Anopheles gambiae; details: 0.1 mM APS
Protocol: as §1

[8] = target: T3, Drosophila TRPA1(A) (Drosophila melanogaster, UniProt Q7Z020); assay: Two-electrode voltage clamp of Xenopus oocytes expressing Drosophila TRPA1(A); assay type: cell-based
T3 sequence (Q7Z020 1-1197): T1 sequence (Q7Z020 1-1197)
Protocol: as §1

[9] = test system: Drosophila (WT: wcs); assay: Capillary feeder (Café) assay, feeding avoidance; assay type: in vivo, Drosophila melanogaster; design: dose or concentration left out as unconfirmed; details: WT flies
Protocol: To quantitatively evaluate the impact of UV irradiation and chemicals on feeding deterrence, the capillary feeder (Café) assay ([Ja et al., 2007]) was used with minor modifications. In particular, feeding avoidance upon UV illumination was determined using two sibling populations of 16 hr starved flies. […] Irradiance was measured as ~1.8, 4, and 57.1 mW/cm^2for UVA, UVB, and white light, respectively, using an excised piece of a vial covering the photodiode probe (S120VC, Thorlabs, NJ, USA) to simulate internal irradiation. The vials were made of polypropylene, which has a low rate of UV transmission ([Kruenate et al., 2004]), resulting in increased internal temperature, as described in Figure 1—figure supplement 3. To minimize thermal accumulation, the UV-illuminated vial was actively cooled by fan-driven air flow while the internal temperature of a separately illuminated vial was concurrently monitored. After each feeding session, the change in the level of the menisci of 30 mM sucrose solutions in three calibrated glass capillary tubes (#2920107, Marienfeld, Lauda-Königshofen, Germany, 15 mm/μl) was measured. Following measurement of the evaporated volume obtained from vials without flies, the distance readings were converted to volume measurements. […]

[10] = test system: mouse TRPA1; details: extracellular Ca2+ required; ref Andersson et al., 2008; cited from earlier work

O[C@@H](CS)[C@@H](O)CS (racemic) [DTT, dithiothreitol]
DTT current response ([1]; Xenopus oocytes): little compared to that of TRPA1(A)
EC50 [2]: ~3.8 µM
DTT current response [3]: seldom showed electrophysiological responses to DTT
effect of pre-application on UV-evoked action potentials [4]: lowered the frequencies of UV-evoked action potentials
DTT responsiveness [5]: indistinguishable from that of TRPA1(B)
DTT responsiveness [6]: indistinguishable from that of TRPA1(B)

N.N.O=S(=O)(O)OOS(=O)(=O)O [APS, ammonium persulfate]
channel activation ([2]; 0.1 mM APS, mixture 0.01 mM TEMED and 0.1 mM APS, from 30 min after mixing): activated agTPRA1(A)
channel activation [7]: not agTRPA1(B)

S=C=NCc1ccccc1 [BITC, benzyl isothiocyanate]
effect of pre-application on UV-evoked action potentials [4]: lowered the frequencies of UV-evoked action potentials

N#CSCc1ccccc1 [BTC, benzyl thiocyanate]
isoform preference of activation ([2]; Xenopus oocytes): preferentially activated agTRPA1(A) over agTRPA1(B)
effect of pre-application on UV-evoked action potentials [4]: lowered the frequencies of UV-evoked action potentials

OO [H2O2, hydrogen peroxide]
EC50 [8]: 5 ± 0.8 µM
lowest concentration that readily activates the channel ([8]; Xenopus oocytes, 'as low as'): 100 nM
Emax ([8]; read-out: average maximal current amplitude relative to NMM responses): ~30%
EC50 [1]: 900 ± 200 µM
EC50 [2]: 1.7 ± 0.3 µM
NMM-normalized peak current amplitude relative to Drosophila TRPA1(A) ([2]; Xenopus oocytes): ~ 5 times
H2O2 current response [3]: remarkably reduced responses to H2O2
feeding avoidance [9]: increasingly avoided ingestion of H2O2-containing food
spiking response of bitter-sensing neurons ([4]; 100 mM H2O2, required the TrpA1 gene): robust spiking response
H2O2 current response [5]: remarkably reduced responses to H2O2
H2O2 current response [6]: remarkably reduced responses to H2O2
EC50 [10]: ~230 µM

CN1C(=O)C=CC1=O [NMM, N-methyl maleimide]
reversal potential of evoked current ([8]; Xenopus oocytes, n = 7): −5.4 ± 1.0 mV
rectification: ratio of conductance at +60 mV to that at −60 mV ([8]; net response, Xenopus oocytes, n = 4): 1.7 ± 0.3
effect on the stimulatory effect of APS/TEMED co-incubation ([2]; NMM at 0.01 mM): abolished
feeding avoidance [9]: showed NMM-dependent feeding avoidance
effect of pre-application on UV-evoked action potentials [4]: lowered the frequencies of UV-evoked action potentials

c1c[nH]cn1 [imidazole]
isoform preference of activation ([2]; Xenopus oocytes): preferentially activated agTRPA1(A) over agTRPA1(B)
